Assay results: patent US20140303092A1 (CHIMERIX, INC., priority 2011, published 2014)
Values joined by “and” are separate entries in the source; they are usually repeats but may differ in a detail not shown here. Equal values may be shown once.

Tested on: CMV
Test: Study HDP-CDV-201: prevention or control of CMV infection in R+ HSCT recipients (efficacy)
Assay type: in vivo, human (adult allogeneic HSCT recipients)
Details: for Rate of CMV Disease or End of Treatment CMV Infection (≧200 copies/ml): missing=infection; for Rate of CMV DNAemia ≧1000 copies/mL during the treatment period: post hoc; for Developed CMV DNAemia (≧100 copies/mL) during the treatment period: plasma CMV DNA negative at baseline
Procedure: The clinical study of the current invention (HDP-CDV-201) was a 9-11 week randomized, placebo-controlled, double-blind, dose-escalation study (40 mg weekly [QW], 100 mg QW, 200 mg QW, 200 mg twice-weekly [BIW], and 100 mg BIW) of HDP-CDV for the prevention of CMV infection post-HCT. Treatment was initiated at the time of engraftment and continued until Week 13 post-HCT. HDP-CDV, at various doses, was active and well tolerated in the prevention CMV infection or disease.
Clinical Studies of HDP-CDV were performed and described in detail in the following Examples. For example, HDP-CDV-201 is a placebo-controlled, dose-escalating trial in HSCT CMV (R+) recipients, evaluating the ability of HDP-CDV to prevent or control CMV infection was carried out. Five cohorts were established in which participants or subjects received either placebo or the HDP-CDV orally, in doses ranging from 40 mg weekly (QW) to 200 mg twice weekly (BIW). Subjects who were post-HSCT were enrolled at the time of engraftment and randomized to HDP-CDV or placebo (3 to 1 ratio) and received blinded therapy until approximately 100 day post-transplantation. HDP-CDV doses were 40 mg QW, 100 mg QW, 200 mg QW, 200 mg BIW and 100 mg BIW. Escalation to the next dose was decided by the data monitoring committee after review of the safety data from the previous Cohort. Subjects who developed CMV disease or CMV infection requiring pre-emptive therapy with local standard of care were discontinued from blinded therapy and followed for 4 weeks. Subjects who completed treatment with blinded therapy were followed for 8 weeks post-therapy.
The primary endpoint was defined as the incidence of CMV disease at any time during treatment or CMV DNAemia≧200 copies/mL at the end of treatment. All subjects who received at least one dose of drug/placebo and had at least one efficacy evaluation post baseline were included in the primary analysis, regardless of their CMV DNAemia status (negative or positive) at baseline (mITT population). Results for the pooled HDP-CDV Cohorts and for each Cohort separately were analyzed versus that for pooled placebo.
The primary efficacy measure for this study was treatment failure, defined as the occurrence of CMV infection, defined as CMV DNAemia>200 copies/mL at the End of Treatment or diagnosis of CMV disease at any time during the treatment period. For the analysis, the following definitions apply:
For subjects who completed the treatment phase of the study, the End of Treatment was defined as the latest assessment from date of the last dose of study drug and up to 7 days for QW dosing, or the date of the last dose of study drug and up to 4 days for BIW dosing. For subjects who discontinued during the treatment phase of the study, the End of Treatment was defined as the date of the last dose of study drug.
The time to event was defined as the period between FDD and date of first occurrence of the event of interest (inclusive). The events included onset of CMV DNAemia, onset of CMV disease, and discontinuation because of excluded anti-CMV medications. Time to event/onset was derived as (the event/onset date—FDD)+1.
As detailed in the Statistical Analysis Plan, a modified CMV stratum was defined prior to conducting the statistical analysis based upon polymerase chain reaction (PCR) results from the central laboratory. If any positive CMV DNA value in plasma was collected before the first dose of study drug (including Screening, Pre-dose, (combined Screening/Pre-dose), CMV for stratification, and FDD), then the subject was placed into the modified CMV positive (≧100 copies/mL) stratum, otherwise the subject was in the modified CMV negative stratum. […]

[1] = 100 mg BIW, modified CMV negative stratum
[2] = 100 mg BIW, whole study period, CMV DNA negative at baseline
[3] = 100 mg QW, CMV modified strata: negative
[4] = 100 mg QW, CMV modified strata: positive
[5] = 100 mg QW, active treatment period
[6] = 100 mg QW, modified CMV negative stratum

CCCCCCCCCCCCCCCCOCCCOP(=O)(O)COC(CO)Cn1ccc(N)nc1=O (stereo not drawn) [HDP-CDV]
Incidence of CMV disease or initiation of anti-CMV preemptive therapy (100 mg BIW, mITT): 14%
Subjects Receiving Antiviral Therapy and/or had CMV disease (100 mg BIW, mITT): 7 (14.0%) subjects (%)
Subjects without a CMV event (100 mg BIW, mITT): 43 (86.0%) subjects (%)
Time to Antiviral Therapy, Median (100 mg BIW, mITT): 23.0 days
Rate of CMV Disease or End of Treatment CMV Infection (≧200 copies/ml) (100 mg BIW, mITT): 10%
Rate of CMV DNAemia ≧1000 copies/mL during the treatment period (100 mg BIW, mITT): 8%
Time to Antiviral Therapy, Mean (100 mg BIW, mITT, censored values not included): 23.1 days
% CMV Event Rate: Incidence of CMV DNAemia >100 copies/mL During Treatment (Fisher analysis, ref 14.3.3.2.1) [1]: 9 (22.5%) subjects (%)
% CMV Event Rate: Incidence of CMV DNAemia ≧1,000 copies/mL at any time during treatment [1]: 0 subjects (%)
% CMV Event Rate: onset of CMV DNAemia During Whole Study [1]: 14 (33.3%) subjects (%)
Combined CMV event rate (CMV disease, viremia requiring treatment, viremia ≧1000 copies/mL) [1]: 12.2%
Subjects Who Had CMV-related Event (CMV disease, CMV DNAemia ≧1,000 c/mL or initiation of anti-CMV treatment) [1]: 5 (12.2%) subjects (%)
Subjects without a CMV-related event [1]: 36 (87.8%) subjects (%)
Developed CMV DNAemia (≧100 copies/mL) during the treatment period (100 mg BIW, mITT): 10 (23.8.%) N(%) and 10 (23.8%) N(%)
Time to CMV DNAemia (≧100 copies/mL), Median (100 mg BIW, treatment period, CMV DNA negative at baseline): 20.0 days
Time to CMV DNAemia (≧100 copies/mL), Mean (100 mg BIW, treatment period, CMV DNA negative at baseline, censored values not included): 28.8 days
Number of Subjects who had CMV DNAemia (≧100 copies/mL) by the end of study [2]: 14
Time to CMV DNAemia (≧100 copies/mL), Mean [2]: 42.8 days
Time to CMV DNAemia (≧100 copies/mL), Median [2]: 32.5 days
Incidence of composite endpoint (initiation of anti-CMV therapy or CMV disease or CMV DNAemia >1,000 copies/mL) (100 mg QW): 21.7%
Difference (HDP-CDV minus placebo) in infection rate [3]: −16.7%
Difference (HDP-CDV minus placebo) in rate of CMV DNAemia ≧1,000 copies/ml [3]: −23.2%
Rate of CMV DNAemia ≧1,000 copies/ml during the treatment period [3]: 8.7%
Rate of CMV Disease or End of Treatment CMV Infection [3]: 13.0%
Difference (HDP-CDV minus placebo) in rate of CMV DNAemia ≧1,000 copies/mL [4]: 16.7%
Rate of CMV DNAemia ≧1,000 copies/mL during the treatment period [4]: 100.0%
Rate of CMV Disease or End of Treatment CMV Infection (100 mg QW, aGVHD randomization strata: negative): 24.0%
Difference (HDP-CDV minus placebo) in infection rate (100 mg QW, aGVHD strata: negative): −8.1%
Discontinuation: Emergence of CMV disease [5]: 3 Subject n (%) and 3 (11.1%) Subject n (%)
Discontinuation: Initiation of alternate CMV therapy [5]: 4 (14.8%) Subject n (%)
Difference (HDP-CDV minus placebo) in rate of CMV DNAemia ≧1000 copies/mL (100 mg QW, mITT): −20.2%
Difference (HDP-CDV minus placebo) in rate of CMV disease or end of treatment CMV infection (100 mg QW, mITT): −15.1%
Subjects Receiving Antiviral Therapy and/or had CMV disease (100 mg QW, mITT): 7 (25.9%) subjects (%)
Subjects without a CMV event (100 mg QW, mITT): 20 (74.1%) subjects (%)
Time to Antiviral Therapy, Median (100 mg QW, mITT): 41.0 days
Rate of CMV Disease or End of Treatment CMV Infection (≧200 copies/ml) (100 mg QW, mITT): 22% and 22.2%
Rate of CMV DNAemia ≧1000 copies/mL during the treatment period (100 mg QW, mITT): 22.2%
Time to Antiviral Therapy, Mean (100 mg QW, mITT, censored values not included): 41.9 days
% CMV Event Rate: Incidence of CMV DNAemia >100 copies/mL During Treatment (Fisher analysis, ref 14.3.3.2.1) [6]: 5 (21.7%) subjects (%)
% CMV Event Rate: Incidence of CMV DNAemia ≧1,000 copies/mL at any time during treatment [6]: 2 (8.7%) subjects (%)
% CMV Event Rate: onset of CMV DNAemia During Whole Study [6]: 8 (34.8%) subjects (%)
Subjects Who Had CMV-related Event (CMV disease, CMV DNAemia ≧1,000 c/mL or initiation of anti-CMV treatment) [6]: 5 (21.7%) subjects (%)
Subjects without a CMV-related event [6]: 18 (78.3%) subjects (%)
Developed CMV DNAemia (≧100 copies/mL) during the treatment period (100 mg QW, mITT): 5 (21.7%) N(%)
Time to CMV DNAemia (≧100 copies/mL), Median (100 mg QW, treatment period, CMV DNA negative at baseline): 30.0 days
